Tests used:
[1] = target: MHC class 1 allele A*02:01 (Homo sapiens, UniProt P04439, D140Y/D185E/D98H/E176V/E277Q/G131W/G231S/I119V/I121R/I166T/I218V/L300P/L318F/N151K/N90K/P208A/P217A/Q86G/Q94H/R138H/R169H/T345S); experiment: REVEAL binding of HLA-A2 binding peptides; details: Higher REVEAL score
[2] = system: peptide-loaded RMA-S HHD cells; experiment: Chromium 51 release assay (CTL assay); assay type: cell-based, mice; details: effector:target 75:1, 50:1, 25:1; mice immunized with recombinant MAGE-A9 and poly(I:C)
[3] = system: spleen cells; experiment: Spleen cell studies (omission of peptide 223); assay type: cell-based

## ALSVMGVYV [MAGE-A9 223, MAGE-A9 peptide antigen]
[1]
  binding to MHC class 1 allele A*02:01 (in words): high binding
[2]
  CTL response (51Cr-release): elicited a response
[3]
  impact of omission on immunogenic potential of a final formulation: does not significantly impact

Source: patent US20240390468A1, “SURVIVIN AND MAGE-A9 DUAL-TARGETED IMMUNOTHERAPY” (IMMUNOVACCINE TECHNOLOGIES INC., priority 2022, published 2024)
